According to patent US9040019B2, “Methods of detecting myelin basic protein” (General Electric Company, priority 2012, dated 2015):

What was measured:
[1] = Measurement of optical properties of the agents (absorbance and fluorescence emission); format: physicochemical; settings: in DMSO; for Abs (maximal absorbance wavelength) / Em (maximal fluorescence emission wavelength): compounds lacking nerve binding; for Absorbance Maximum / Emission Maximum / Stoke shift: nerve labeling agents
Description: The flurophores were dissolved in dimethylsulfoxide (DMSO) to make a 10 mM stock solution. An aliquot was taken to prepare a 10-100 μM flurophore solution in methanol, water, or DMSO. Optical measurements from the three solvents were taken. Absorbance spectra were measured using a PerkinElmer Lambda™ 20 UV/VIS spectrometer (PerkinElmer, Waltham, Mass.). Emission spectra were generated using a PTI steady state fluorimeter (Photon Technology International, Birmingham, N.H.). The stoke shift for nerve labeling agents on Table 3 are greater than 100 nm.

[2] = system: sciatic nerve tissue sections; test: Ex vivo binding of nerve labelling agents to sciatic nerve tissue sections (fluorescence microscopy); design: species or system male Sprague Dawley (SD) rats; settings: 10 μM or 20 μM agent, 1 hour incubation, compared to control tissue without agent
Description: For ex vivo histological evaluation, various nerves including sciatic, femoral and trigeminal were harvested from male Sprague Dawley (SD) rats. Tissue was fixed by perfusion and/or post-fixed with formalin. Nerves were then flash-frozen using methanol and dry ice in OCT media. In some cases, polyvinylidene fluoride membranes were used to help keep the nerves vertical in the OCT media. Thin sections (5-10 microns) were sliced on a Leica microtome and stored in a −80° C. freezer prior to staining with antibodies or fluorescent dyes.
Nerve sections were prepared as described above. At the time of staining the slides were removed from −80° C. and allowed to come to room temperature. The nerves were fixed in neutral buffered formalin (10%) for 5 min after which the slides were rinsed in 1×PBS (3×, 5 min/each). 10 μM, or 20 μM each Formula II, Formula III, Formula IV, Formula V, or Formula VI was added onto the tissue in a formulation containing 10% Cremophor EL and 60% rat serum made in 1×PBS. The slides were incubated for 1 hour in a dark, moist/humid chamber at room temperature after which they were washed 3 times for 5 min/each in 1×PBS, cover-slipped, and imaged using the appropriate filter cube on a Zeiss Axioimager at 200× magnification.

[3] = system: nerve, muscle, and adipose tissue; test: Kinetics of clearance, tissue fluorescence after IV injection; format: in vivo, adult male CD-1 mice; settings: 3.33 mg/kg IV; 0.5, 1, 2 and 3 hours post injection
Description: (§1) All procedures were approved by the Institutional Animal Care and Use Committee (IACUC) at GE Global Research. Male CD-1 mice ranging in body weight from 25-30 g and SD rats (250-350 g) were purchased from Charles River Laboratories (Wilmington, Mass.) and housed at 22-23° C. on a 12-hour light/dark cycle. On the day of the experiment, rodents were anesthetized using 2-4% isofluorane and given a single tail vein injection of either imaging agent in formulation or formulation excipients alone. […]
(§2) In vivo imaging consisted of detailed fluorescence emission characterization and surgical imaging using a Zeiss Lumar™ imaging system (Carl Zeiss Inc. Thornwood, N.Y.) with coupled multispectral imaging camera (Nuance camera; CRI, Woburn, Mass.) or AxioCam™ (Carl Zeiss Inc. Thornwood, N.Y.). […] A variety of excitation filters were used to characterize the in vivo fluorescence of these agents. […] Fluorescence emission data was then recorded at wavelengths ranging from 420 to 720 nm at 10 nm steps using the attached CRI-Nuance™ camera (Cambridge Research and Instrumentation Inc., Wobur, Mass.) or using a 500 nm-long pass filter on the AxioCam. Fluorescence images were collected using exposure times of 5 seconds in both control and agent injected animals for normalization. […]

nerves = test: Pre-clinical fluorescence in vivo imaging of nerves in a large rodent model; design: species or system Sprague Dawley (SD) rat; settings: 0.5 hours post injection
Description: as §1, §2

Row | Abs (maximal absorbance wavelength) [1] [nm] | Em (maximal fluorescence emission wavelength) [1] [nm] | Absorbance Maximum [1] [nm] | Emission Maximum [1] [nm] | Stoke shift [1] [nm] | Ex vivo binding to sciatic nerve tissue sections (fluorescence signal) [2] | SMILES | also measured
1 | – | – | 492 | 642 | 150 | – | COc1cc(/C=C/C2=CC(=C(C#N)C#N)C=C(C)O2)ccc1NCc1ccc(N)cc1 [Formula IV] | –
2 | – | – | – | – | – | fluorescence signal is evident | CC1=CC(=C(C#N)C#N)C=C(/C=C/c2ccc(N(CCO)CCO)cc2)O1 [III] | –
3 | – | – | – | – | – | fluorescence signal is evident | CC1=CC(=C(C#N)C#N)C=C(/C=C/c2ccc(NCCO)cc2)O1 [V] | –
4 | – | – | 478 | 607 | 129 | fluorescence signal is evident | CC1=CC(=C(C#N)C#N)C=C(/C=C/c2ccc(N)cc2)O1 [Formula II] | Maximum tissue-specific fluorescence intensity over time post injection (nerve, muscle, adipose tissue) [3]: decreases with increasing time post injection; Nerve visibility in fluorescence imaging (nerves; 8.33 mg/kg IV): Visible nerves present; Nerve visibility in fluorescence imaging (nerves; 16.67 mg/kg IV): Visible nerves present
5 | – | – | 478 | 631 | 153 | – | COc1cc(/C=C/C2=CC(=C(C#N)C#N)C=C(C)O2)ccc1N [Formula VI] | –
6 | – | – | 484 | 618 | 134 | – | CC1=CC(=C(C#N)C#N)C=C(/C=C/c2ccc(NCCO)cc2)O1 [Formula V] | –
7 | – | – | – | – | – | fluorescence signal is evident | COc1cc(/C=C/C2=CC(=C(C#N)C#N)C=C(C)O2)ccc1N [VI] | –
8 | – | – | – | – | – | fluorescence signal is evident | COc1cc(/C=C/C2=CC(=C(C#N)C#N)C=C(C)O2)ccc1NCc1ccc(N)cc1 [IV] | –

Continued, compound first:

Row | SMILES | Abs (maximal absorbance wavelength) [1] [nm] | Em (maximal fluorescence emission wavelength) [1] [nm] | Absorbance Maximum [1] [nm] | Emission Maximum [1] [nm] | Stoke shift [1] [nm] | Ex vivo binding to sciatic nerve tissue sections (fluorescence signal) [2] | also measured
9 | CC1(C)OC(=C(C#N)C#N)C(C#N)=C1/C=C/c1ccc(N(CCO)CCO)cc1 [F] | 596 | 656 | – | – | – | – | –
10 | CC1(C)OC(=C(C#N)C#N)C(C#N)=C1/C=C/c1ccc(N)cc1 [D] | 574 | 621 | – | – | – | – | –
11 | CC1=CC(=C(C#N)C#N)C=C(/C=C/c2ccc(N(CCO)CCO)cc2)O1 [Formula III] | – | – | 491 | 623 | 132 | – | –
12 | CC1(C)OC(=O)C(C#N)=C1/C=C/c1ccc(N)cc1 [A] | 480 | 562 | – | – | – | – | –
13 | CC1(C)OC(=O)C(C#N)=C1/C=C/c1ccc(N(CCO)CCO)cc1 [C] | 505 | 591 | – | – | – | – | –
14 | CC1(C)OC(=C(C#N)C#N)C(C#N)=C1/C=C/c1ccc(NCCO)cc1 [E] | 590 | 636 | – | – | – | – | –
15 | CC1(C)OC(=O)C(C#N)=C1/C=C/c1ccc(NCCO)cc1 [B] | 494 | 578 | – | – | – | – | –
